From patent publication US20100152100A1, “ACCELERATED THERAPY” (Gloucester Pharmaceuticals, Inc., priority 2008, published 2010)

Experiments:
[1] = Accelerated romidepsin dosing, clinical trial experience (unit doses given intravenously over about one hour or less)
[2] = Earlier clinical investigations of romidepsin: observed toxicities and deaths; conditions: early development; out of more than 450 patients
[3] = human, in vivo
[4] = patient five, (Breast Cancer), 8 mg/m^2
[5] = patient four, (Breast Cancer), 8 mg/m^2
[6] = patient two, (Multiple Myeloma), 10 mg/m^2
[7] = patient, (Multiple Myeloma), 8 mg/m^2

For `C/C=C1\NC(=O)[C@H]2CSSCC/C=C/[C@H](CC(=O)N[C@H](C(C)C)C(=O)N2)OC(=O)[C@H](C(C)C)NC1=O` [romidepsin, (1S,4S,10S,16E,21R)-7-[(2Z)-ethylidene]-4,21-diisopropyl-2-oxa-12,13-dithia-5,8,20,23-tetraazabicyclo[8.7.6]tricos-16-ene-3,6,9,19,22-pentanone], the “electrocardiogram findings, lab abnormalities, adverse events, and serious adverse events overall” value ([1]; 15 patients on accelerated dosing regimens) was “consistent with the results seen in prior clinical trials utilizing romidepsin”, the “Clinically Significant Lab Abnormalities” value [1, 4] was “None” and the “Related SAEs” value [1, 4] was “None”. The “ECG Findings (Machine Alerts)” value ([1]; patient five, (Breast Cancer), 8 mg/m^2, full wrapped cell: Nonspecific T wave changes, low QRS voltages, tachycardia, possible anterior infarction, left atrial abnormality) was “Nonspecific T wave”, the “Related Adverse Events” value ([1]; patient five, GPI-06-0005 (Breast Cancer), 8 mg/m^2 on Days 1, 8, and 15 of Cycle 2 and beyond, 6 accelerated doses, full wrapped cell: Fatigue, dysphagia, dizziness) was “Fatigue,” and the “Clinically Significant Lab Abnormalities” value [1, 5] was “None”. The “Related SAEs” value [1, 5] was “None”, the “ECG Findings (Machine Alerts)” value ([1]; patient four, (Breast Cancer), 8 mg/m^2, full wrapped cell: Left anterior fascicular block, low QRS voltages, nonspecific T wave changes, possible left ventricular hypertrophy, possible anterior infarction, tachycardia, sinus arrhythmia) was “Left anterior” and the “Related Adverse Events” value ([1]; patient four, GPI-06-0005 (Breast Cancer), 8 mg/m^2 on Days 1, 8, and 15 of Cycle 2 and beyond, 5 accelerated doses, full wrapped cell: Fatigue, vomiting, anemia, anorexia) was “Fatigue,”. For the same molecule, the “Related SAEs” value ([1]; patient one, (Multiple Myeloma), 10 mg/m^2) was “None”, the “ECG Findings (Machine Alerts)” value ([1]; patient one, (Multiple Myeloma), 10 mg/m^2, full wrapped cell: Sinus tachycardia, nonspecific ST changes, low QRS voltages, junctional depression prior to baseline) was “Sinus tachycardia,” and the “Clinically Significant Lab Abnormalities” value ([1]; patient one, (Multiple Myeloma), 10 mg/m^2, full wrapped cell: Thrombocytopenia, anemia, neutropenia, increased serum creatinine, hyperpcalcemia) was “Thrombocytopenia,”. For the same molecule, the “Related Adverse Events” value ([1]; patient one, GPI-08-0006 (Multiple Myeloma), 10 mg/m^2 on Days 1, 8, and 15 of Cycle 1 and beyond, 2 accelerated doses, full wrapped cell: Flushing, cold feeling, nausea, vomiting, back pain, canker sore, fatigue, UTI, hypokalemia, hypophosphatemia) was “Flushing,”, the “Related SAEs” value ([1]; patient three, (Multiple Myeloma), 10 mg/m^2) was “None” and the “ECG Findings (Machine Alerts)” value ([1]; patient three, (Multiple Myeloma), 10 mg/m^2, full wrapped cell: Nonspecific T waves changes possibly due to myocardial ischemia, results consistent with baseline ECGs) was “Nonspecific T waves”. The “Clinically Significant Lab Abnormalities” value ([1]; patient three, (Multiple Myeloma), 10 mg/m^2, full wrapped cell: Thrombocytopenia, anemia, neutropenia) was “Thrombocytopenia,”, the “Related Adverse Events” value ([1]; patient three, GPI-08-0006 (Multiple Myeloma), 10 mg/m^2 on Days 1, 8, and 15 of Cycle 1 and beyond, 13 accelerated doses, full wrapped cell: Nausea, vomiting, flushing, constipation, headache, body aches, abdominal pain, diarrhea, bloating, vein erythema) was “Nausea,” and the “QTC (ECG machine alert)” value [1, 6] was “close to 450”. For the same molecule, the “Related SAEs” value [1, 6] was “None”, the “ECG Findings (Machine Alerts)” value ([1]; patient two, (Multiple Myeloma), 10 mg/m^2, full wrapped cell: T wave changes, conduction defect of right bundle branch block, low QRS spatial velocity, QTC close to 450) was “T wave changes,” and the “Clinically Significant Lab Abnormalities” value ([1]; patient two, (Multiple Myeloma), 10 mg/m^2, full wrapped cell: Thrombocytopenia, anemia, neutropenia, increased serum creatinine) was “Thrombocytopenia,”. The “Related Adverse Events” value ([1]; patient two, GPI-08-0006 (Multiple Myeloma), 10 mg/m^2 on Days 1, 8, and 15 of Cycle 1 and beyond, 2 accelerated doses, full wrapped cell: Knee pain, headache, skin crawling, cold feet, malaise, bowel urgency, nausea, vomiting) was “Knee pain,”, the “Adverse Events reported directly after infusion” value (“Adverse Events reported directly” for short) ([1]; patient, 78 kg, 26 mg on days 1, 8, and 15 of 28 day cycle, accelerated dose Day 15 of cycle 8, full wrapped cell: Nausea, vomiting and diarrhoea, heamaturia) was “Nausea,” and the LAB ([1]; patient, 78 kg, 26 mg, accelerated dose Day 15 of cycle 8, full wrapped cell: Hypocalcaemia noted) was “Hypocalcaemia”. The ECG ([1]; patient, 78 kg, 26 mg, accelerated dose Day 15 of cycle 8, full wrapped cell: Post infusion ECG - peaked T waves laterally and subtle ST depression laterally but otherwise normal ECG next day was normal) was “Post infusion”, the “Adverse Events reported directly” value ([1]; patient, 95.8 Kg, 30.5 mg on days 1, 8, and 15 of 28 day cycle, accelerated dose Day 1 of cycle 8) was “None” and the “lateral ST depression on post infusion ECG” value ([1]; patient, 95.8 Kg, 30.5 mg, accelerated dose Day 1 of cycle 8, asymptomatic) was “of 1 mm”. The LAB ([1]; patient, 95.8 Kg, 30.5 mg, accelerated dose Day 1 of cycle 8, full wrapped cell: No immediate effect but hypocalcaemia later) was “No immediate”, the ECG ([1]; patient, 95.8 Kg, 30.5 mg, accelerated dose Day 1 of cycle 8, full wrapped cell: Post infusion ECG asymptomatic - showed some lateral ST depression of 1 mm. ECG 2 hours later showed improvement) was “Post infusion” and the “Related SAEs” value ([1]; patient, 103 Kg, (Multiple Myeloma), 10 mg/m^2) was “None”. The “ECG Findings (Machine Alerts)” value ([1]; patient, 103 Kg, (Multiple Myeloma), 10 mg/m^2, full wrapped cell: Nonspecific T wave changes, ST junctional depression) was “Nonspecific T wave”, the “Clinically Significant Lab Abnormalities” value ([1]; patient, 103 Kg, (Multiple Myeloma), 10 mg/m^2, full wrapped cell: Thrombocytopenia, anemia, neutropenia, hypoalbuminemia) was “Thrombocytopenia,” and the “Related Adverse Events” value ([1]; patient, 103 Kg, GPI-08-0006 (Multiple Myeloma), 10 mg/m^2 on Days 1, 8, and 15 of Cycle 1 and beyond, 4 accelerated doses, full wrapped cell: Nausea, thrombocytopenia, fatigue, vein erythema, vomiting) was “Nausea,”. For the same molecule, the “Adverse Events reported directly” value ([1]; patient, 13 mg on days 1, 8, and 15 of 28 day cycle, accelerated dose Day 15 of cycle 2) was “None”, the LAB ([1]; patient, 13 mg, accelerated dose Day 15 of cycle 2, full wrapped cell: No abnormalities) was “No” and the ECG ([1]; patient, 13 mg, accelerated dose Day 15 of cycle 2, full wrapped cell: Post dose ECGs taken on same day and next day, no abnormalities notes) was “Post dose”. The “Related SAEs” value ([1]; patient, (Giant Cell), 12 mg/m^2) was “None”, the “Clinically Significant Lab Abnormalities” value ([1]; patient, (Melanoma), 8 mg/m^2) was “None” and the “Related SAEs” value ([1]; patient, (Melanoma), 8 mg/m^2) was “None”. For the same molecule, the “ECG Findings (Machine Alerts)” value ([1]; patient, (Melanoma), 8 mg/m^2, full wrapped cell: Nonspecific T wave changes possibly due to myocardial ischemia, low QRS voltages, sinus tachycardia, possible inferior infarction) was “Nonspecific T wave”, the “Clinically Significant Lab Abnormalities” value [1, 7] was “None” and the “Related SAEs” value [1, 7] was “None”. For the same molecule, the “ECG Findings (Machine Alerts)” value ([1]; patient, (Multiple Myeloma), 10 mg/m^2, full wrapped cell: T wave inversion, low QRS voltages, reversed R wave progression) was “T wave inversion,”, the “Clinically Significant Lab Abnormalities” value ([1]; patient, (Multiple Myeloma), 10 mg/m^2, full wrapped cell: Thrombocytopenia, anemia, neutropenia, hypoalbuminemia, hypokalemia) was “Thrombocytopenia,” and the “Related SAEs” value ([1]; patient, (Multiple Myeloma), 10 mg/m^2, full wrapped cell: Vomiting, headache, dehydration) was “Vomiting,”. For the same molecule, the “Clinically Significant Lab Abnormalities” value ([1]; patient, (NHL), 8 mg/m^2) was “None”, the “Related SAEs” value ([1]; patient, (NHL), 8 mg/m^2) was “None” and the “ECG Findings (Machine Alerts)” value ([1]; patient, (NHL), 8 mg/m^2, full wrapped cell: Probable normal variant, borderline lateral T wave changes, low QRS voltages) was “Probable normal”. For the same molecule, the “Related SAEs” value ([1]; patient, (Ovarian Cancer), 12 mg/m^2, full wrapped cell: Atrial fibrillation) was “Atrial”, the “Related Adverse Events” value ([1]; patient, GPI-06-0005 (Melanoma), 8 mg/m^2 on Days 1, 8, and 15 of Cycle 2 and beyond, 3 accelerated doses, full wrapped cell: Fatigue, vomiting) was “Fatigue,” and the “Related Adverse Events” value ([1]; patient, GPI-06-0005 (NHL), 8 mg/m^2 on Days 1, 8, and 15 of Cycle 2 and beyond, 3 accelerated doses) was “Fatigue”. For the same molecule, the “ECG Findings (Machine Alerts)” value ([1]; patient, GPI-08-0006 (Multiple Myeloma), 8 mg/m^2 on Days 1, 8, and 15 of Cycle 1 and beyond, 4 accelerated doses) was “None”, the “Related Adverse Events” value ([1]; patient, GPI-08-0006 (Multiple Myeloma), 10 mg/m^2 on Days 1, 8, and 15 of Cycle 1 and beyond, 1 accelerated dose, full wrapped cell: Nausea, vomiting, headache, dehydration) was “Nausea,” and the “rate of serious adverse events vs unit doses administered over about 4 hours” value ([1]; unit doses over less than about one hour) was “without increasing the rate of serious adverse events”. The “deaths during clinical investigations” value [2] was 6, the “serial serum troponin levels and multiple gated acquisition (MUGA) scans” value [3] was “consistently normal” and the “severity of observed toxicities” value [3] was “mild to moderate”.
